We go through eleven compounds from patent publication US20230144211A1, “ANTIFOLATE LINKER-DRUGS AND ANTIBODY-DRUG CONJUGATES” (Byondis B.V., priority 2020, published 2023).

Assay [1] deals with SW-620 cells. As to the kind of experiment: In vitro cell viability assay (CellTiter-Glo, 6 days). In kind it is cell-based. The settings on record: Homo sapiens, free antifolate drugs, Table 1a. How it is done: (§1) FaDu, BxPC-3, HeLa, MV4-11, and RAJI cell lines were obtained from Deutsche Sammlung von Mikroorganismen und Zellkulturen (Leipzig, Germany). Jurkat NucLight Red cells were obtained from Essen BioScience Inc. (Ann Arbor, Mich., USA). SK-BR-3 and SK-OV-3 cells were cultured in McCoys 5A medium (Lonza; Walkersville, Md., USA) supplemented with 10% v/w Fetal Bovine Serum (FBS), Heat-inactivated (HI) (Gibco-Life Technologies; Carlsbad, Calif.) and 80 U/mL Pen/Strep (Gibco-Life Technologies), at 37° C. in a humidified incubator under 5% CO2 atmosphere. SW-620 cells were similarly maintained in RPMI 1640 medium (Lonza), containing 10% v/w FBS HI and 80 U/mL Pen/Strep. A-549 cells were similarly maintained in F-12K Nutrient Mixture (1×) (Gibco-Life Technologies) media supplemented with 80 U/mL Pen/Strep and 5% v/w FBS, which was Qualified (Q) (Gibco-Life Technologies). BT-474 and AU-565 cells were similarly maintained in RPMI 1640 medium (Lonza), containing 10% v/w FBS, which was Qualified (Q) (Gibco-Life Technologies), and 80 U/mL Pen/Strep. […] Jurkat NucLight Red cells were similarly maintained in RPMI 1640 medium (Lonza), containing 10% v/w FBS HI, 80 U/mL Pen/Strep and 0.5 μg/mL Puromycin (Gibco-Life Technologies). FaDu cells were cultured in EMEM medium (Lonza) supplemented with 10% v/w FBS HI (Gibco-Life Technologies), 1× GlutaMAX (Gibco-Life Technologies), and 80 U/mL Pen/Strep (Gibco-Life Technologies), at 37° C. in a humidified incubator under 5% CO2 atmosphere.
(§2) After an overnight incubation, 10 serial log 10 dilutions of the free drugs were made in DMSO (Sigma-Aldrich). These free drug dose-response curves were 10-times further diluted in complete growth medium. For the ADCs according to the invention 10 serial log 10 dilutions were made in complete growth medium. 10 μL of a composition comprising a free drug or an ADC according to the invention was added to the assay plate (final DMSO content for free drugs was 1%). […] Cell viability was assessed after 6 days using a luminescent assay kit (CellTiter-Glo™ (CTG), Promega Corporation) according to the manufacturer's instructions. Percentage cell survival was calculated by dividing the measured luminescence for each free drug or ADC according to the concentration with the average mean of untreated cells (1% or 0.1% DMSO control (for free drugs) or 100% complete growth medium (for ADCs)) multiplied by 100.
(§3) Curves were fitted by non-linear regression using the sigmoidal dose-response equation with variable slope (four parameters) using curve-fitting software (GraphPad Prism, version 9.4.0 for Windows, GraphPad, San Diego, Calif. or Electronic Laboratory Notebook (ELN) add-in BioAssay, version 19.1.0.0218, Perkin Elmer, Waltham, Mass.). Relative IC50 values were calculated as the concentration that gives a response halfway between bottom and top of the curve, when using a 4-parameter logistic fit. Data were reported as mean IC50 value of at least one experiment performed in duplicate.
In general terms: ATP-based viability assays read luminescence as a measure of living cells.

The test system of assay [2] is SK-BR-3 cells. The description is as above. It counts as cell-based, human. The following applies: Homo sapiens, SK-BR-3, free antifolate drugs. Here is the method: as §1
as §2, with “Cell viability was assessed after 6 days using a luminescent assay kit (CellTiter-Glo™ (CTG), Promega Corporation) according to the manufacturer's instructions.” left out
as §3

Assay [3] relates to A-549 cells. Described as above. In kind it is cell-based. The settings on record: Homo sapiens, A549; free antifolate drugs, Table 1a; $ steep hillslope. How it is done: (§4) Human tumor cell lines SK-BR-3, SW-620, A-549, BT-474, Jurkat Clone E6-1, AU-565, and SK-OV-3 were obtained from American Type Culture Collection (Rockville, Md., USA). FaDu, BxPC-3, HeLa, MV4-11, and RAJI cell lines were obtained from Deutsche Sammlung von Mikroorganismen und Zellkulturen (Leipzig, Germany). Jurkat NucLight Red cells were obtained from Essen BioScience Inc. (Ann Arbor, Mich., USA). SK-BR-3 and SK-OV-3 cells were cultured in McCoys 5A medium (Lonza; Walkersville, Md., USA) supplemented with 10% v/w Fetal Bovine Serum (FBS), Heat-inactivated (HI) (Gibco-Life Technologies; Carlsbad, Calif.) and 80 U/mL Pen/Strep (Gibco-Life Technologies), at 37° C. in a humidified incubator under 5% CO2 atmosphere. SW-620 cells were similarly maintained in RPMI 1640 medium (Lonza), containing 10% v/w FBS HI and 80 U/mL Pen/Strep. A-549 cells were similarly maintained in F-12K Nutrient Mixture (1×) (Gibco-Life Technologies) media supplemented with 80 U/mL Pen/Strep and 5% v/w FBS, which was Qualified (Q) (Gibco-Life Technologies). BT-474 and AU-565 cells were similarly maintained in RPMI 1640 medium (Lonza), containing 10% v/w FBS, which was Qualified (Q) (Gibco-Life Technologies), and 80 U/mL Pen/Strep. Jurkat Clone E6-1, BxPC-3, HeLa, MV4-11, and RAJI cells were similarly maintained in RPMI 1640 medium (Lonza), containing 10% v/w FBS HI and 80 U/mL Pen/Strep. Jurkat NucLight Red cells were similarly maintained in RPMI 1640 medium (Lonza), containing 10% v/w FBS HI, 80 U/mL Pen/Strep and 0.5 μg/mL Puromycin (Gibco-Life Technologies). FaDu cells were cultured in EMEM medium (Lonza) supplemented with 10% v/w FBS HI (Gibco-Life Technologies), 1× GlutaMAX (Gibco-Life Technologies), and 80 U/mL Pen/Strep (Gibco-Life Technologies), at 37° C. in a humidified incubator under 5% CO2 atmosphere.
as §2, with “Cells in complete growth medium were plated in 96-well plates (90 μL/well) and incubated at 37° C., 5% CO2 at the following cell densities: 6500 SK-BR-3, 4000 SW-620, 2500 A-549, 10000 BT-474, 3000 Jurkat Clone E6-1, 5000 AU-565, 1250 FaDu, 1250 BxPC-3, 1000 HeLa, 7500 MV4-11, 1000 RAJI, 3000 Jurkat NucLight Red, and 4000 SK-OV-3 cells per well. After” for “After”
as §3

In assay [4] the test system is AU-565 cells. The description is as above. It counts as cell-based, human. The following applies: Homo sapiens, AU565, free antifolate drugs. Here is the method: as §1
as §2, with “Cell viability was assessed after 6 days using a luminescent assay kit (CellTiter-Glo™ (CTG), Promega Corporation) according to the manufacturer's instructions.” left out
as §3

For assay [5], the system named is Human tumor cell lines. Put plainly: In vitro cell viability assays, free antifolate drugs, overall comparison. In kind it is cell-based. The following applies: compared with talotrexin or parent compound. How it is done: as §4
as §2, with “Cells in complete growth medium were plated in 96-well plates (90 μL/well) and incubated at 37° C., 5% CO2 at the following cell densities: 6500 SK-BR-3, 4000 SW-620, 2500 A-549, 10000 BT-474, 3000 Jurkat Clone E6-1, 5000 AU-565, 1250 FaDu, 1250 BxPC-3, 1000 HeLa, 7500 MV4-11, 1000 RAJI, 3000 Jurkat NucLight Red, and 4000 SK-OV-3 cells per well. After” for “After”
as §3

For assay [6], the system named is Jurkat NucLight Red cells. Put plainly: In vitro cell viability assay (CellTiter-Glo, 6 days). It counts as cell-based, human. The following applies: Homo sapiens, Jurkat, free antifolate drugs. Here is the method: as §1, §2, §3

In the case of `Cc1c(CNc2ccc(C(=O)N[C@@H](CCCNC(=O)c3ccccc3C(=O)O)C(=O)O)cc2)ccc2nc(N)nc(N)c12` [Comparative compound 1, reference compound], the IC50 (usually the concentration needed to halve the response being measured) in assay [1] is 1.41 nM; in assay [2] (Table 1a) it was 0.92 nM; in assay [3], 1.97 nM.
For `Nc1nc(N)c2nc(CNc3ccc(C(=O)N[C@@H](CCCNC(=O)c4ccccc4C(=O)O)C(=O)O)cc3)cnc2n1` [Talotrexin, reference compound], in that order: 1.74 nM, 1.83 nM and 1.7 nM.
Take `Nc1ccc(-c2cn(CCC[C@H](NC(=O)c3ccc(NCc4cnc5nc(N)nc(N)c5n4)cc3)C(=O)O)nn2)c(C(=O)O)c1` [XR22, (S)-5-Amino-2-(1-(4-carboxy-4-(4-(((2,4-diaminopteridin-6-yl)methyl)amino)benzamido)butyl)-1H-1,2,3-triazol-4-yl)benzoic acid]: the concentration for half-maximal inhibition (IC50) in assay [2] (Table 1a) is 2.2 nM; in assay [4] (Table 1a), 0.9 nM; in assay [3] it was about 2.5 nM.
For `Nc1nc(N)c2nc(CNc3ccc(C(=O)N[C@@H](CCCNC(=O)c4ccc(O)cc4)C(=O)O)cc3)cnc2n1` [XS14, (S)-2-(4-(((2,4-diaminopteridin-6-yl)methyl)amino)benzamido)-5-(4-hydroxybenzamido)pentanoic acid], the figures for the IC50 in assay [2] (Table 1a), in assay [4] (Table 1a) and in assay [3] were 1.6 nM, 1.9 nM and about 8.7 nM, respectively.
In the case of `Nc1ccc(C(=O)O)c(C(=O)NCCC[C@H](NC(=O)c2ccc(NCc3cnc4nc(N)nc(N)c4n3)cc2)C(=O)O)c1` [XT9, (S)-4-Amino-2-((4-carboxy-4-(4-(((2,4-diaminopteridin-6-yl)methyl)amino)benzamido)butyl)carbamoyl)-benzoic acid], the IC50 stood at 10 nM in assay [1], 17 nM in assay [2] (Table 1a) and 20 nM in assay [3].
For `Nc1ccc(C(=O)NCCC[C@H](NC(=O)c2ccc(NCc3cnc4nc(N)nc(N)c4n3)cc2)C(=O)O)c(C(=O)O)c1` [XT10, (S)-5-amino-2-((4-carboxy-4-(4-(((2,4-diaminopteridin-6-yl)methyl)-amino)benzamido)butyl)carbamoyl)benzoic acid], the results for the IC50 in assay [1], in assay [2] (Table 1a) and in assay [3] were 2.1 nM, 1.9 nM and 2 nM, respectively.
For `CN(Cc1cnc2nc(N)nc(N)c2n1)c1ccc(C(=O)N[C@@H](CCCNC(=O)c2cc(N)ccc2C(=O)O)C(=O)O)cc1` [XT20, (S)-4-Amino-2-((4-carboxy-4-(4-(((2,4-diaminopteridin-6-yl)methyl)(methyl)amino)benzamido)butyl)-carbamoyl)benzoic acid], in that order: 12 nM, 25 nM and 19 nM.
For `CN(Cc1cnc2nc(N)nc(N)c2n1)c1ccc(C(=O)N[C@@H](CCCNC(=O)c2ccc(N)cc2C(=O)O)C(=O)O)cc1` [XT21, (S)-5-amino-2-((4-carboxy-4-(4-(((2,4-diaminopteridin-6-yl)methyl)(methyl)amino)benzamido)butyl)carbamoyl)benzoic acid], in that order: 2.9 nM, 2.1 nM and 2.3 nM.
For `Nc1ccc(C(=O)O)c(C(=O)NCCC[C@H](NC(=O)c2ccc(CCc3cnc4nc(N)nc(N)c4n3)cc2)C(=O)O)c1` [XT24, (S)-4-Amino-2-((4-carboxy-4-(4-(2-(2,4-diaminopteridin-6-yl)ethyl)benzamido)butyl)carbamoyl) benzoic acid], in that order: 7.5 nM, 18 nM and 27 nM.
As to `Nc1ccc(C(=O)NCCC[C@H](NC(=O)c2ccc(CCc3cnc4nc(N)nc(N)c4n3)cc2)C(=O)O)c(C(=O)O)c1` [XT25, (S)-5-amino-2-((4-carboxy-4-(4-(2-(2,4-diaminopteridin-6-yl)ethyl)benzamido)butyl)-carbamoyl)benzoic acid], the IC50 in assay [1] worked out at 1.1 nM; in assay [2] (Table 1a) it was 1 nM; in assay [3] it was 2.3 nM.
As for `Nc1ccc(C(=O)NCCC[C@H](NC(=O)c2ccc(NCc3ccc4nc(N)nc(N)c4c3Cl)cc2)C(=O)O)c(-c2nnn[nH]2)c1` [XT110, (S)-5-(4-Amino-2-(1H-tetrazol-5-yl)benzamido)-2-(4-(((2,4-diamino-5-chloroquinazolin-6-yl)methyl)amino)benzamido)pentanoic acid], the IC50 in assay [2] (Table 1b, # no full dose-response curve) stood at 0.41 nM; in assay [2] (Table 1c), 0.54 nM; in assay [4] (Table 1b) it was 0.36 nM; in assay [4] (Table 1c) it was 0.44 nM; in assay [6] (Table 1b), 0.75 nM; in assay [6] (Table 1c), 0.92 nM. The “antifolate activity, comparison in words” value in assay [5] is reported as “strongly increased the antifolate activity”.
